Blank lines part the entries; values can stand above or below the compound they belong to.
Legend:
[1] = target: T1, von Hippel-Lindau disease tumor suppressor/Bcl-2-like protein 1 (Homo sapiens, UniProt Q07817+P40337); test: PROTAC activity at VHL/BCL-XL in human THP-1 cells assessed as induction of BCL-XL degradation incubated for 16 hrs by immunoblot analysis; assay type: cell-based
Target sequence in this assay (Q07817 whole entry): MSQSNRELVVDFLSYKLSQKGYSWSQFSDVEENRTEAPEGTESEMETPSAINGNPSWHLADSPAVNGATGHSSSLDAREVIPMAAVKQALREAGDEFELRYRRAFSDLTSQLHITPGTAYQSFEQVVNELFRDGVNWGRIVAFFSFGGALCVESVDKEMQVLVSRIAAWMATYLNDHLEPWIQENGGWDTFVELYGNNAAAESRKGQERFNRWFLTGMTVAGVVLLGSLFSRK
Target sequence in this assay (P40337 whole entry): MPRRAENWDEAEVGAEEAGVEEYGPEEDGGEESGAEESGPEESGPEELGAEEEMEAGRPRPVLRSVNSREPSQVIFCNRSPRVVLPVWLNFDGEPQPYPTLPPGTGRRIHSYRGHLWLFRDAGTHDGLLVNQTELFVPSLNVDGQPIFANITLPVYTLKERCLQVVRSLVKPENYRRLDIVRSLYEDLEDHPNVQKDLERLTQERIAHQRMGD

[2] = target: T1, von Hippel-Lindau disease tumor suppressor/Bcl-2-like protein 1; test: PROTAC activity at VHL/BCL-XL in human THP-1 cells assessed as induction of protein degradation by measuring maximal degradation relative to control; assay type: cell-based
Target sequence in this assay (P40337 whole entry, looked up): as the sequence (P40337 whole entry) above
Target sequence in this assay (Q07817 whole entry, looked up): as the sequence (Q07817 whole entry) above

MOLT-4 [3] = test: Antiproliferative activity against human MOLT-4 cells assessed as cell growth inhibition incubated for 72 hrs by Cell Titer-Glo Luminescent assay; assay type: functional, cell-based; conditions: MOLT-4, 72 h
[4] = target: T2, von Hippel-Lindau disease tumor suppressor/Epidermal growth factor receptor (Homo sapiens, UniProt P00533+P40337); test: PROTAC activity at VHL/EGFR del19 mutant in human HCC827 cells assessed as protein degradation incubated for 24 hrs by immunoblot analysis; assay type: cell-based
T2 sequence (P00533 whole entry, looked up, stated change not applied): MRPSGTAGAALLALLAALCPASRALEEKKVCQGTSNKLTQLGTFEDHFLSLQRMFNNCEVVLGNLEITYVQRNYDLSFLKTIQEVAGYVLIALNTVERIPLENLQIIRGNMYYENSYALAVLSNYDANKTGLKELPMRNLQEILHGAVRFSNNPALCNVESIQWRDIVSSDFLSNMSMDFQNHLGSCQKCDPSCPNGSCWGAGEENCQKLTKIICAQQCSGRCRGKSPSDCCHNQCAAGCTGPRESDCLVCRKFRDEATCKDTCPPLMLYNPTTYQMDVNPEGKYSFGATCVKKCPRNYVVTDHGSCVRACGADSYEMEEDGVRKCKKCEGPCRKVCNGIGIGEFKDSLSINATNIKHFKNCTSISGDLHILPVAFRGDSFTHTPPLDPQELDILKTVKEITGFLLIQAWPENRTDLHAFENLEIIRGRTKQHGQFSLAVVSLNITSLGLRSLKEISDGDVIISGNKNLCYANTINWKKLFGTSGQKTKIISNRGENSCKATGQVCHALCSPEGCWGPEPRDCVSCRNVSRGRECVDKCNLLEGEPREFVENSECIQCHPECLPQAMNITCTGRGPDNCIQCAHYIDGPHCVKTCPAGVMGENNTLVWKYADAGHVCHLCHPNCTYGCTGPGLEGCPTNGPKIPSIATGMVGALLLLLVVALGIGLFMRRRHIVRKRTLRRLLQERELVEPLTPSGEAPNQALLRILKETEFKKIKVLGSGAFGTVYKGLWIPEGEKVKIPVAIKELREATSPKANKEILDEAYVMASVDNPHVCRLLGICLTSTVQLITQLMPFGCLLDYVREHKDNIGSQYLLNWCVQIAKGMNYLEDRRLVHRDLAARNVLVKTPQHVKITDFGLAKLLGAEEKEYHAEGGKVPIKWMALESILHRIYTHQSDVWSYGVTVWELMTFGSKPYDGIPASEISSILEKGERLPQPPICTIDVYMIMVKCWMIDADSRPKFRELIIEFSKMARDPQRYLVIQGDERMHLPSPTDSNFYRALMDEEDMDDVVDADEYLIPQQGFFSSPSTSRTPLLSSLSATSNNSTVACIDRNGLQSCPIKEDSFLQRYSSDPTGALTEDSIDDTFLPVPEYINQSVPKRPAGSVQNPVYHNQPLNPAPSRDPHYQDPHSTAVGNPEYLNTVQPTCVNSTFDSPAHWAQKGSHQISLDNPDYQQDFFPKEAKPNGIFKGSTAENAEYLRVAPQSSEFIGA
T2 sequence (P40337 whole entry, looked up, stated change not applied): as the sequence (P40337 whole entry) above

[5] = target: T2, von Hippel-Lindau disease tumor suppressor/Epidermal growth factor receptor; test: PROTAC activity at VHL/EGFR del19 mutant in human NCI-H3255 cells assessed as protein degradation incubated for 24 hrs by immunoblot analysis; assay type: cell-based
[6] = test system: von Hippel-Lindau disease tumor suppressor/Epidermal growth factor receptor (Homo sapiens), P00533+P40337 [UNDEFINED MUTATION]; test: PROTAC activity at VHL/EGFR del19 mutant in human HCC827 cells assessed as maximal degradation incubated for 24 hrs by immunoblot analysis relative to control; assay type: cell-based
Chain of von Hippel-Lindau disease tumor suppressor/Epidermal growth factor receptor (Homo sapiens), P00533+P40337 [UNDEFINED MUTATION] (P00533 whole entry, looked up, stated change not applied): as the sequence (P00533 whole entry, looked up, stated change not applied) above
Chain of von Hippel-Lindau disease tumor suppressor/Epidermal growth factor receptor (Homo sapiens), P00533+P40337 [UNDEFINED MUTATION] (P40337 whole entry, looked up, stated change not applied): as the sequence (P40337 whole entry) above

[7] = test system: von Hippel-Lindau disease tumor suppressor/Epidermal growth factor receptor (Homo sapiens), P00533+P40337 [UNDEFINED MUTATION]; test: PROTAC activity at VHL/EGFR del19 mutant in human NCI-H3255 cells assessed as maximal degradation incubated for 24 hrs by immunoblot analysis relative to control; assay type: cell-based
[8] = target: T1, von Hippel-Lindau disease tumor suppressor/Bcl-2-like protein 1; test: PROTAC activity at VHL/BCL-XL in human MOLT-4 cells assessed as induction of BCL-XL degradation incubated for 16 hrs by immunoblot analysis; assay type: cell-based
Target sequence in this assay (Q07817 whole entry): as the sequence (Q07817 whole entry) above
Target sequence in this assay (P40337 whole entry): as the sequence (P40337 whole entry) above

[9] = target: T1, von Hippel-Lindau disease tumor suppressor/Bcl-2-like protein 1; test: Protac activity at VHL/BCL-XL in human MOLT-4 cells assessed as induction of protein degradation by measuring maximal degradation relative to control; assay type: cell-based
Target sequence in this assay (P40337 whole entry, looked up): as the sequence (P40337 whole entry) above
Target sequence in this assay (Q07817 whole entry, looked up): as the sequence (Q07817 whole entry) above

MOLT-4 [10] = test: Anticancer activity against human MOLT-4 cells assessed as reduction in cell viability incubated for 72 hrs by MTS assay; assay type: functional, cell-based; conditions: MOLT-4, 72 h
Bcl-2-like protein 1 = Bcl-2-like protein 1 (Homo sapiens, UniProt Q07817); test: Induction of Bcl-xl degradation in HEK293T cells incubated for 16 hrs by immunoblotting analysis; assay type: cell-based
Chain of Bcl-2-like protein 1 (Q07817 whole entry): as above

[11] = target: Apoptosis regulator Bcl-2 (Homo sapiens, UniProt P10415); test: Induction of Bcl2 degradation in HEK293T cells incubated for 16 hrs by immunoblotting analysis; assay type: cell-based
Chain of Apoptosis regulator Bcl-2 (P10415 whole entry): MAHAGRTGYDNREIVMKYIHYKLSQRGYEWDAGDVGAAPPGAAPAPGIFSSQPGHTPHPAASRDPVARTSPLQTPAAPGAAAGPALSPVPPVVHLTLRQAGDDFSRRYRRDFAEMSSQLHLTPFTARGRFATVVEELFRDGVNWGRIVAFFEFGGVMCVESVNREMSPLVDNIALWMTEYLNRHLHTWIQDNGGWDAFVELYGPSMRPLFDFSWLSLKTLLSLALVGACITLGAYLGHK

DC50 [1]: 0.0048 µM
Emax [2]: 76%
EC50 (MOLT-4 [3]): 0.578 µM
SMILES: Cc1ncsc1-c1ccc(CNC(=O)[C@@H]2C[C@@H](O)CN2C(=O)[C@H](NC(=O)CCOCCOCCOCCOCCOCCOCC#Cc2ccc(OCCCc3sc(N4CCc5cccc(C(=O)Nc6nc7ccccc7s6)c5C4)nc3C(=O)O)cc2)C(C)(C)C)cc1

SMILES: COc1cc2ncnc(Nc3ccc(F)c(Cl)c3)c2cc1OCCCCCOCCOCCC(=O)N[C@@H](C(=O)N1C[C@@H](O)C[C@@H]1C(=O)NCc1ccc(-c2scnc2C)cc1)C(C)(C)C
DC50 [4]: 0.0117 µM
DC50 [5]: 0.0223 µM
Emax [6]: 98.9%
Emax [7]: 96.6%

DC50 [8]: 0.053 µM
Emax [9]: 90.8%
EC50 (MOLT-4 [10]): 0.052 µM
SMILES: Cc1ncsc1-c1ccc([C@H](C)NC(=O)[C@H]2C[C@H](O)CN2C(=O)[C@@H](NC(=O)CCCCCC(=O)N2CCN(CC[C@H](CSc3ccccc3)Nc3ccc(S(=O)(=O)NC(=O)c4ccc(N5CCN(CC6=C(c7ccc(Cl)cc7)CCC(C)(C)C6)CC5)cc4)cc3S(=O)(=O)C(F)(F)F)CC2)C(C)(C)C)cc1

DC50 (Bcl-2-like protein 1): 0.006 µM
DC50 [11]: 0.048 µM
SMILES: Cc1ncsc1-c1ccc([C@H](C)NC(=O)[C@@H]2C[C@@H](O)CN2C(=O)[C@H](NC(=O)CCCCCCC(=O)N2CCN(C[C@]3(C)CCC(c4ccc(Cl)cc4)=C(CN4CCN(c5ccc(C(=O)NS(=O)(=O)c6ccc(N[C@H](CCN7CCOCC7)CSc7ccccc7)c(S(=O)(=O)C(F)(F)F)c6)cc5)CC4)C3)CC2)C(C)(C)C)cc1
